Results taken from US12016864B2, “LOX enzyme inhibiting methods and compositions” (ANOVIA BIOSCIENCES, INC., priority 2021, dated 2024).

These molecules were tested against T1, Recombinant human LOXL2 (lysyl oxidase like 2) (Homo sapiens, UniProt Q9Y4K0) (assay: LOXL2 inhibition assay, fluorometric (cadaverine / HRP / Amplex Red)). Conditions: recombinant human LOXL2 130 nM; 30 min preincubation at 37° C.; 2.5 mM cadaverine; read-out: Activity Range LOXL2.
T1 construct: purchased R&D systems
T1 sequence (Q9Y4K0 26-774): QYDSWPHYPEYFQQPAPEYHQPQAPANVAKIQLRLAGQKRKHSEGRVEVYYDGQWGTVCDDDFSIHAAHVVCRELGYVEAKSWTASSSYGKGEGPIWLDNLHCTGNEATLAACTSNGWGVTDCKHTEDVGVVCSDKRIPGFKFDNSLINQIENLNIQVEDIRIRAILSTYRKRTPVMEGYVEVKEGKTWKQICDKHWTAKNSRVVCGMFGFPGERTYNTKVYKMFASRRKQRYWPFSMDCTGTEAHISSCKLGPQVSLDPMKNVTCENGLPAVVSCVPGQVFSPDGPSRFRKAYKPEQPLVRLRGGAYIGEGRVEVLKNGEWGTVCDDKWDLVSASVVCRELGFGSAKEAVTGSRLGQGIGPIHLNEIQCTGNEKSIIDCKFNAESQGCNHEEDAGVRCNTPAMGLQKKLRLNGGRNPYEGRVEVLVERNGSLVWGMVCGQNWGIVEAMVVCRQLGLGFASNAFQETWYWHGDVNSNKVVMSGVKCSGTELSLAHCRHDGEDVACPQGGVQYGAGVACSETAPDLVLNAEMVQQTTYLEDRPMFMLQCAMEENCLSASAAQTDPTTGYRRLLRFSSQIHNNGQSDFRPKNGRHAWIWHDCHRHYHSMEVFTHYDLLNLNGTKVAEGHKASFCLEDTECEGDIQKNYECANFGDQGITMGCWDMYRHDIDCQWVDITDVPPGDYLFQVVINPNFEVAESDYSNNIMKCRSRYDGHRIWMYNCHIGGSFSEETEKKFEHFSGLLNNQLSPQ
Assay type: biochemical
Experimental: The ability of compounds to inhibit one or more of the lysyl oxidases LOXL2 and/or LOXL3 was determined using a fluorometric assay. This assay measures the activity of lysyl oxidases by coupling the reaction with horseradish peroxidase-catalyzed […]. The activity assay protocol uses cadaverine as substrate that releases hydrogen peroxide upon transformation by the specific LOX family enzyme present in the sample. Hydrogen peroxide is in turn detected using a red fluorescence substrate for HRP-coupled reactions (Amplex Red Enzyme Assays, Thermo Scientific Fisher). This leads to increase in fluorescence that can be easily detected at Ex/Em=540/590 nm in a fluorescence microplate reader.
Recombinant human LOXL2 (lysyl oxidase like 2) and recombinant human LOXL3 (lysyl oxidase like 3) were purchased from R&D systems and assays were performed in 1.2 M urea, 50 mM sodium borate buffer pH 8.0, and 10 mM CaCl.
5 μl of freshly prepared reaction buffer were delivered to reaction wells. Compounds were resuspended in 100% DMSO at 10 mM and delivered into buffer using acoustic technology (Echo550; nanoliter range). A 3× solution of LOXL2 or LOXL3 in reaction buffer was prepared (“enzyme solution”) and 5 μL of enzyme solution was added into the reaction wells. Buffer only was added to column 1 for no protein control. Reactions were incubated for 30 minutes at 37° C. A 3× mixture of cadaverine, Amplex Red, and HRP (“Substrate/Detection Mix) was prepared and subsequently 5 μL of the mixture added to each reaction well. Progress of reactions was monitored for 60 minutes at 37° C. using Clariostar plate reader (ex 530-12, ems 600-40). For all activity assays, pan-LOX inhibitor CCT365623 (Tang et al, 2017) and LOXL2/LOXL3 inhibitor PAT-1251 (PharmaKea) were included as standards.
For the data analysis, the slope of the linear portion of the progress curve was calculated using Clariostar software. Typical analysis interval was between 8-30 min, but varied between experiments. The background-subtracted signals (No protein wells are considered as background) were converted to % activity relative to DMSO controls. Data was analyzed using GraphPad Prism 4 with “sigmoidal dose-response (variable slope)”; 4 parameters with Hill Slope. Constraints: Bottom=Constant equal to 0. Top=Must be less than 120.

IC50 [nM] | Compound
≤ 500 | NCc1ccnc(S(=O)(=O)C[C@@H]2C[C@H](c3ccccc3F)CN2S(=O)(=O)N2CCS(=O)(=O)CC2)c1 (racemic) [Example 205, cis-4-((2-(((4-(Aminomethyl)pyridin-2-yl)sulfonyl)methyl)-4-(2-fluorophenyl)pyrrolidin-1-yl)sulfonyl)thiomorpholine 1,1-dioxide 2,2,2-trifluoroacetate]
≤ 500 | NCc1ccc(S(=O)(=O)C[C@@H]2C[C@H](c3ccccc3F)CN2S(=O)(=O)N2CCS(=O)(=O)CC2)s1 (racemic) [Example 209, cis-4-((2-(((5-(Aminomethyl)thiophen-2-yl)sulfonyl)methyl)-4-(2-fluorophenyl)pyrrolidin-1-yl)sulfonyl)thiomorpholine 1,1-dioxide 2,2,2-trifluoroacetate]
≤ 500 | NCc1ccnc(OC[C@@H]2C[C@H](c3ccccc3F)CN2S(=O)(=O)N2CCOCC2)c1 (racemic) [Example 211, cis-(2-((4-(2-Fluorophenyl)-1-(morpholinosulfonyl)pyrrolidin-2-yl)methoxy)pyridin-4-yl)methanamine; trifluoroacetic acid]
≤ 500 | NCc1ccnc(OC[C@@H]2C[C@H](c3ccccc3F)CN2S(=O)(=O)N2CCS(=O)(=O)CC2)c1 (racemic) [Example 213, cis-4-((2-(((4-(Aminomethyl)pyridin-2-yl)oxy)methyl)-4-(2-fluorophenyl)pyrrolidin-1-yl)sulfonyl)thiomorpholine 1,1-dioxide 2,2,2-trifluoroacetate]
500 to 1000 | NCc1cccc(OC[C@@H]2C[C@H](c3ccccc3F)CN2S(=O)(=O)N2CCOCC2)c1 (racemic) [Example 215, cis-(3-((4-(2-Fluorophenyl)-1-(morpholinosulfonyl)pyrrolidin-2-yl)methoxy)phenyl)methanamine]
500 to 1000 | NCc1cccc(OC[C@@H]2C[C@H](c3ccccc3F)CN2S(=O)(=O)N2CCS(=O)(=O)CC2)c1 (racemic) [Example 217, cis-4-((2-((3-(Aminomethyl)phenoxy)methyl)-4-(2-fluorophenyl)pyrrolidin-1-yl)sulfonyl)thiomorpholine 1,1-dioxide 2,2,2-trifluoroacetate]
≤ 500 | NCc1ccnc(S(=O)(=O)C[C@@H]2C[C@H](c3ccccc3)CN(S(=O)(=O)N3CCOCC3)C2)c1 (racemic) [Example 219, cis-(2-(((1-(Morpholinosulfonyl)-5-phenylpiperidin-3-yl)methyl)sulfonyl)pyridin-4-yl)methanamine 2,2,2-trifluoroacetate]
≤ 500 | NCc1ccnc(S(=O)(=O)C[C@H]2C[C@H](c3ccccc3)CN(S(=O)(=O)N3CCOCC3)C2)c1 (racemic) [Example 219T, trans-(2-(((1-(Morpholinosulfonyl)-5-phenylpiperidin-3-yl)methyl)sulfonyl)pyridin-4-yl)methanamine 2,2,2-trifluoroacetate]
≤ 500 | NCc1ccnc(OC[C@@H]2C[C@H](c3ccccc3)CN(S(=O)(=O)N3CCOCC3)C2)c1 (racemic) [Example 220, cis-(2-((1-(Morpholinosulfonyl)-5-phenylpiperidin-3-yl)methoxy)pyridin-4-yl)methanamine 2,2,2-trifluoroacetate]
≤ 500 | NCc1cccc(OC[C@@H]2C[C@H](c3ccccc3)CN(S(=O)(=O)N3CCOCC3)C2)c1 (racemic) [Example 221, cis-(3-((1-(Morpholinosulfonyl)-5-phenylpiperidin-3-yl)methoxy)phenyl)methanamine 2,2,2-trifluoroacetate]
≤ 500 | NCc1ccc(S(=O)(=O)C[C@@H]2C[C@H](c3ccccc3)CN(S(=O)(=O)N3CCOCC3)C2)s1 (racemic) [Example 222, cis-(5-(((1-(Morpholinosulfonyl)-5-phenylpiperidin-3-yl)methyl)sulfonyl)thiophen-2-yl)methanamine 2,2,2-trifluoroacetate]
≤ 500 | CS(=O)(=O)N1C[C@@H](c2ccccc2)C[C@H]1CS(=O)(=O)c1ccc(CN)s1 (racemic) [Example 223, cis-(5-(((1-(Methylsulfonyl)-4-phenylpyrrolidin-2-yl)methyl)sulfonyl)thiophen-2-yl)methanamine 2,2,2-trifluoroacetate]
≤ 500 | CS(=O)(=O)N1C[C@@H](c2ccccc2)C[C@@H]1CS(=O)(=O)c1ccc(CN)s1 (racemic) [Example 223T, trans-(5-(((1-(Methylsulfonyl)-4-phenylpyrrolidin-2-yl)methyl)sulfonyl)thiophen-2-yl)methanamine 2,2,2-trifluoroacetate]
≤ 500 | NCc1ccnc(OC[C@H]2C[C@H](C3CCCCC3)CN(S(=O)(=O)N3CCS(=O)(=O)CC3)C2)c1 (racemic) [Example 235T, trans-4-((3-(((4-(Aminomethyl)pyridin-2-yl)oxy)methyl)-5-cyclohexylpiperidin-1-yl)sulfonyl)thiomorpholine 1,1-dioxide 2,2,2-trifluoroacetate]
≤ 500 | NCc1ccnc(OC[C@@H]2CC(C3CCCCC3)CN2S(=O)(=O)N2CCOCC2)c1 (mixture of isomers) [Example 239RAC, (2-(((2S)-4-Cyclohexyl-1-(morpholinosulfonyl)pyrrolidin-2-yl)methoxy)pyridin-4-yl)methanamine 2,2,2-trifluoroacetate]
500 to 1000 | NCc1ccnc(OC[C@H]2C[C@H](c3ccccc3)CN(S(=O)(=O)N3CCOCC3)C2)c1 (relative stereo) [Example 220T, trans-(2-((1-(Morpholinosulfonyl)-5-phenylpiperidin-3-yl)methoxy)pyridin-4-yl)methanamine 2,2,2-trifluoroacetate]
≤ 500 | NCc1cccc(OC[C@H]2C[C@H](c3ccccc3)CN(S(=O)(=O)N3CCOCC3)C2)c1 (relative stereo) [Example 221T, trans-(3-((1-(Morpholinosulfonyl)-5-phenylpiperidin-3-yl)methoxy)phenyl)methanamine 2,2,2-trifluoroacetate]
≤ 500 | NCc1ccc(S(=O)(=O)C[C@H]2C[C@H](c3ccccc3)CN(S(=O)(=O)N3CCOCC3)C2)s1 (relative stereo) [Example 222T, trans-(5-(((1-(Morpholinosulfonyl)-5-phenylpiperidin-3-yl)methyl)sulfonyl)thiophen-2-yl)methanamine 2,2,2-trifluoroacetate]
≤ 500 | NCc1ccnc(S(=O)(=O)C[C@@H]2C[C@H](C3CCCCC3)CN(S(=O)(=O)N3CCOCC3)C2)c1 (relative stereo) [Example 230, cis-(2-(((5-Cyclohexyl-1-(morpholinosulfony1)piperidin-3-yl)methyl)sulfonyl)pyridin-4-yl)methanamine 2,2,2-trifluoroacetate]
≤ 500 | NCc1ccnc(S(=O)(=O)C[C@H]2C[C@H](C3CCCCC3)CN(S(=O)(=O)N3CCOCC3)C2)c1 (relative stereo) [Example 230T, trans-(2-(((5-Cyclohexyl-1-(morpholinosulfonyl)piperidin-3-yl)methyl)sulfonyl)pyridin-4-yl)methanamine 2,2,2-trifluoroacetate]
≤ 500 | NCc1ccnc(OC[C@@H]2C[C@H](C3CCCCC3)CN(S(=O)(=O)N3CCOCC3)C2)c1 (relative stereo) [Example 231, cis-(2-((5-Cyclohexyl-1-(morpholinosulfonyl)piperidin-3-yl)methoxy)pyridin-4-yl)methanamine 2,2,2-trifluoroacetate]
